Results from patent publication US20210221848A1, “POLYMYXIN DERIVATIVES AND THEIR USE IN COMBINATION THERAPY TOGETHER WITH DIFFERENT ANTIBIOTICS” (priority 2014, published 2021).
Read-outs that look alike come from different tables or passages of the source.

Columns and labels:
[1] = test system: E. coli strains with elevated MICs to Polymyxin B; assay: MIC against strains with elevated MICs to Polymyxin B; format: cell-based, Escherichia coli; conditions: Table 6D; for MIC E. coli 058: strain 058, elevated MIC to Polymyxin B; for MIC E. coli 059: strain 059, elevated MIC to Polymyxin B; for MIC E. coli 060: strain 060, elevated MIC to Polymyxin B; for MIC E. coli 061: strain 061, elevated MIC to Polymyxin B
Method: (§1) The inoculum was prepared by making a direct suspension of isolated colonies (selected from an 18-24 hour Mueller-Hinton agar plate) adjusted to the 0.5 McFarland standard. […] The assays were performed in duplicate. […] In cases where the duplicate values varied by less than 2-fold, the lower of the two values is reported. If a variation of greater than 2-fold was observed, the assay was considered non-valid. Several of the compounds were subjected to multiple tests, and where this is the case, the MIC reflects the modal value obtained.
(§2) The Further Synthesis Examples were tested against a range of Gram negative bacteria, and tested for HK-2 cell toxicity. All the worked examples, including the Synthesis and Further Synthesis Examples, were also tested against a range of Gram negative bacteria that are resistant to Polymyxin B (i.e. those strains where Polymyxin B has an elevated MIC value).

[2] = test system: K. pneumoniae strains with elevated MICs to Polymyxin B; assay: as above; format: cell-based, Klebsiella pneumoniae; conditions: Table 6D; for MIC K. pneumoniae 062: strain 062, elevated MIC to Polymyxin B; for MIC K. pneumoniae 063: strain 063, elevated MIC to Polymyxin B; for MIC K. pneumoniae 064: strain 064, elevated MIC to Polymyxin B; for MIC K. pneumoniae 655: strain 655, elevated MIC to Polymyxin B
Method: as §1, §2

[3] = test system: A. baumanii strains with elevated MICs to Polymyxin B; assay: MIC against strains with elevated MICs to Polymyxin B; format: cell-based, Acinetobacter baumannii; conditions: Table 6D; for MIC A. baumannii 053: strain 053, elevated MIC to Polymyxin B; for MIC A. baumannii 056: strain 056, elevated MIC to Polymyxin B; for MIC A. baumannii 068: strain 068, elevated MIC to Polymyxin B; for MIC A. baumannii 070: strain 070, elevated MIC to Polymyxin B
Method: as §1, §2

[4] = test system: P. aeruginosa strains with elevated MICs to Polymyxin B; assay: MIC against strains with elevated MICs to Polymyxin B; format: cell-based, Pseudomonas aeruginosa; conditions: Table 6D; for MIC P. aeruginosa 065: strain 065, elevated MIC to Polymyxin B; for MIC P. aeruginosa 066: strain 066, elevated MIC to Polymyxin B; for MIC P. aeruginosa 067: strain 067, elevated MIC to Polymyxin B
Method: as §1, §2

[5] = absence of a second agent, Table 6B

## (S)-3-amino-2- ((2- trifluoromethylben- zyl)amino)propa- noyl L-Thr-L- Dap-polymyxin B heptapeptide [Example D76]
K. pneumoniae; sole activity, Table 6C
  MIC, K. pneumoniae ATCC 4352: 0.06 micrograms/mL
  MIC, K. pneumoniae ATCC BAA-2146: 0.125 micrograms/mL
A. baumannii; sole activity, Table 6C
  MIC, A. baumannii ATCC BAA-747: 0.06 micrograms/mL
  MIC, A. baumannii NCTC 13424: 0.25 micrograms/mL
[1]
  MIC E. coli 058: 4 micrograms/mL
  MIC E. coli 059: 6 micrograms/mL
  MIC E. coli 060: 2 micrograms/mL
  MIC E. coli 061: 8 micrograms/mL
[2]
  MIC K. pneumoniae 062: 64 micrograms/mL
  MIC K. pneumoniae 063: 16 micrograms/mL
  MIC K. pneumoniae 064: 2 micrograms/mL
  MIC K. pneumoniae 655: 16 micrograms/mL
P. aeruginosa; sole activity, Table 6C
  MIC, P. aeruginosa ATCC 27853: 0.25 micrograms/mL
  MIC, P. aeruginosa CCUG 59347: 0.25 micrograms/mL
[3]
  MIC A. baumannii 053: 64 micrograms/mL
  MIC A. baumannii 056: 16 micrograms/mL
  MIC A. baumannii 068: 8 micrograms/mL
  MIC A. baumannii 070: 16 micrograms/mL
E. coli; sole activity, Table 6C
  MIC, E. coli ATCC 25922: 0.125 micrograms/mL
  MIC, E. coli NCTC 13441: 0.25 micrograms/mL
[4]
  MIC P. aeruginosa 065: 2 micrograms/mL
  MIC P. aeruginosa 066: 2 micrograms/mL
  MIC P. aeruginosa 067: 64 micrograms/mL

## 5- isobutoxypiperidine- 3-carbonyl L- Thr-L-Dap- polymyxin B heptapeptide [Example D70]
K. pneumoniae; sole activity, Table 6C
  MIC, K. pneumoniae ATCC 4352: 0.06 micrograms/mL
A. baumannii; sole activity, Table 6C
  MIC, A. baumannii ATCC BAA-747: 0.06 micrograms/mL
  MIC, A. baumannii NCTC 13424: 0.125 micrograms/mL
[1]
  MIC E. coli 058: 4 micrograms/mL
  MIC E. coli 059: 8 micrograms/mL
  MIC E. coli 060: 4 micrograms/mL
  MIC E. coli 061: 16 micrograms/mL
[2]
  MIC K. pneumoniae 062: 64 micrograms/mL
  MIC K. pneumoniae 063: 64 micrograms/mL
  MIC K. pneumoniae 064: 6 micrograms/mL
  MIC K. pneumoniae 655: 32 micrograms/mL
P. aeruginosa; sole activity, Table 6C
  MIC, P. aeruginosa ATCC 27853: 0.25 micrograms/mL
  MIC, P. aeruginosa CCUG 59347: 0.5 micrograms/mL
[3]
  MIC A. baumannii 053: >256 micrograms/mL
  MIC A. baumannii 056: 16 micrograms/mL
  MIC A. baumannii 068: 8 micrograms/mL
  MIC A. baumannii 070: 32 micrograms/mL
E. coli; sole activity, Table 6C
  MIC, E. coli ATCC 25922: 0.125 micrograms/mL
  MIC, E. coli NCTC 13441: 0.125 micrograms/mL
[4]
  MIC P. aeruginosa 065: 4 micrograms/mL
  MIC P. aeruginosa 066: 16 micrograms/mL
  MIC P. aeruginosa 067: >256 micrograms/mL

## cis-5- (benzylcarbamoyl) piperidine-3- carbonyl L-Thr-L- Dap-polymyxin B heptapeptide [Example D75]
K. pneumoniae; sole activity, Table 6C
  MIC, K. pneumoniae ATCC 4352: 0.06 micrograms/mL
  MIC, K. pneumoniae ATCC BAA-2146: 0.125 micrograms/mL
A. baumannii; sole activity, Table 6C
  MIC, A. baumannii ATCC BAA-747: 0.06 micrograms/mL
  MIC, A. baumannii NCTC 13424: 0.125 micrograms/mL
[1]
  MIC E. coli 058: 4 micrograms/mL
  MIC E. coli 059: 8 micrograms/mL
  MIC E. coli 060: 4 micrograms/mL
  MIC E. coli 061: 8 micrograms/mL
[2]
  MIC K. pneumoniae 062: 128 micrograms/mL
  MIC K. pneumoniae 063: 64 micrograms/mL
  MIC K. pneumoniae 064: 8 micrograms/mL
  MIC K. pneumoniae 655: 64 micrograms/mL
P. aeruginosa; sole activity, Table 6C
  MIC, P. aeruginosa ATCC 27853: 0.5 micrograms/mL
  MIC, P. aeruginosa CCUG 59347: 0.5 micrograms/mL
[3]
  MIC A. baumannii 053: 64 micrograms/mL
  MIC A. baumannii 056: 8 micrograms/mL
  MIC A. baumannii 068: 16 micrograms/mL
  MIC A. baumannii 070: 32 micrograms/mL
E. coli; sole activity, Table 6C
  MIC, E. coli ATCC 25922: 0.06 micrograms/mL
  MIC, E. coli NCTC 13441: 0.125 micrograms/mL
[4]
  MIC P. aeruginosa 065: 4 micrograms/mL
  MIC P. aeruginosa 066: 8 micrograms/mL

## trans-4- octylpyrrolidine-3- carbonyl polymyxin B nonapeptide [Example D31]
K. pneumoniae; [5]
  MIC, K. pneumoniae ATCC 4352: 0.5 micrograms/mL
A. baumannii; [5]
  MIC, A. baumannii ATCC BAA-747: 1 micrograms/mL
  MIC, A. baumannii NCTC 13424: 2 micrograms/mL
[1]
  MIC E. coli 058: 2 micrograms/mL
  MIC E. coli 059: 8 micrograms/mL
  MIC E. coli 060: 4 micrograms/mL
  MIC E. coli 061: 16 micrograms/mL
[2]
  MIC K. pneumoniae 062: 64 micrograms/mL
  MIC K. pneumoniae 063: >128 micrograms/mL
  MIC K. pneumoniae 064: 64 micrograms/mL
  MIC K. pneumoniae 655: >256 micrograms/mL
P. aeruginosa; [5]
  MIC, P. aeruginosa ATCC 27853: 0.5 micrograms/mL
  MIC, P. aeruginosa CCUG 59347: 1 micrograms/mL
[3]
  MIC A. baumannii 053: >128 micrograms/mL
  MIC A. baumannii 056: 64 micrograms/mL
  MIC A. baumannii 068: 4 micrograms/mL
  MIC A. baumannii 070: 4 micrograms/mL
E. coli; [5]
  MIC, E. coli ATCC 25922: 2 micrograms/mL
  MIC, E. coli NCTC 13441: 1 micrograms/mL
[4]
  MIC P. aeruginosa 065: 16 micrograms/mL
  MIC P. aeruginosa 066: 32 micrograms/mL
  MIC P. aeruginosa 067: >64 micrograms/mL

## 5-(3- methylbutanamido) piperidine-3- carbonyl Polymyxin B nonapeptide [Example D64]
K. pneumoniae; sole activity, Table 6C
  MIC, K. pneumoniae ATCC 4352: 0.25 micrograms/mL
  MIC, K. pneumoniae ATCC BAA-2146: 0.25 micrograms/mL
A. baumannii; sole activity, Table 6C
  MIC, A. baumannii ATCC BAA-747: 2 micrograms/mL
  MIC, A. baumannii NCTC 13424: 2 micrograms/mL
[1]
  MIC E. coli 058: 64 micrograms/mL
  MIC E. coli 059: 128 micrograms/mL
  MIC E. coli 060: 64 micrograms/mL
  MIC E. coli 061: 64 micrograms/mL
[2]
  MIC K. pneumoniae 062: >256 micrograms/mL
  MIC K. pneumoniae 063: >256 micrograms/mL
  MIC K. pneumoniae 064: 128 micrograms/mL
P. aeruginosa; sole activity, Table 6C
  MIC, P. aeruginosa ATCC 27853: 1 micrograms/mL
  MIC, P. aeruginosa CCUG 59347: 1 micrograms/mL
[3]
  MIC A. baumannii 053: >256 micrograms/mL
  MIC A. baumannii 056: 256 micrograms/mL
  MIC A. baumannii 068: 128 micrograms/mL
  MIC A. baumannii 070: >256 micrograms/mL
E. coli; sole activity, Table 6C
  MIC, E. coli ATCC 25922: 0.25 micrograms/mL
  MIC, E. coli NCTC 13441: 0.25 micrograms/mL
[4]
  MIC P. aeruginosa 065: 64 micrograms/mL
  MIC P. aeruginosa 066: 64 micrograms/mL
  MIC P. aeruginosa 067: >256 micrograms/mL
